Experimental findings from PubChem BioAssay AID330 (DTP/NCI, 2004) are described below.

Where “and” joins values, the source holds several entries; their conditions need not be identical. Identical values can stand only once. Toxic doses and inconclusive results are not listed.

For this test, the system named is P388 leukemia ip, CD2F1 mice, survival T/C. The test is described as follows: NCI In Vivo Anticancer Drug Screen. Data for tumor model P388 Leukemia (intraperitoneal) in CD2F1 (CDF1) mice. The note with it: endpoint: median survival time, higher = longer survival. In outline:
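Mice carrying the transplanted tumor received test compound or vehicle. Survival was recorded in each group, and the value is the treated-group measurement divided by that of the vehicle-treated control group.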

Where [1] appears, read: dose: 25.0 mg/kg/injection, schedule: Q01DX001 (ip), vehicle: saline with Tween-80.
Where [2] appears, read: dose: 50.0 mg/kg/injection, schedule: Q01DX001 (ip), vehicle: saline with Tween-80.
[3] abbreviates: dose: 50.0 mg/kg/injection, schedule: Q01DX005 (ip), vehicle: Klucel (hydroxypropylcellulose) (HPC).
The mark [4] stands for this setting: dose: 100.0 mg/kg/injection, schedule: Q01DX005 (ip), vehicle: Klucel (hydroxypropylcellulose) (HPC).
[5] abbreviates: dose: 200.0 mg/kg/injection, schedule: Q01DX005 (ip), vehicle: Klucel (hydroxypropylcellulose) (HPC).
The mark [6] stands for this setting: dose: 100.0 mg/kg/injection, schedule: Q01DX001 (ip), vehicle: saline with Tween-80.
Where [7] appears, read: dose: 100.0 mg/kg/injection, schedule: Q01DX009 (ip), vehicle: saline.
Where [8] appears, read: dose: 200.0 mg/kg/injection, schedule: Q01DX009 (ip), vehicle: saline.
[9] abbreviates: dose: 200.0 mg/kg/injection, schedule: Q01DX005 (ip), vehicle: saline with Tween-80.

On to `CC1(O)CC23CC(O)C4(O)C(CC(O)C4(C)C)C(C)(O)C2CCC1C3O` (configuration not stated), for which the T/C runs as follows: (dose: 0.25 mg/kg/injection, schedule: Q01DX009 (ip), vehicle: Klucel (hydroxypropylcellulose) (HPC)) 97 % of control; (dose: 0.5 mg/kg/injection, schedule: Q01DX009 (ip), vehicle: Klucel (hydroxypropylcellulose) (HPC)) 103 % of control.

Consider `O=C1c2c(O)ccc(O)c2C(=O)c2c(NCCN(CCO)Cc3ccccc3)ccc(NCCN(CCO)Cc3ccccc3)c21`, for which the T/C reads like this: (dose: 0.62 mg/kg/injection, schedule: Q01DX009 (ip), vehicle: saline with Tween-80) 118 % of control; (dose: 1.25 mg/kg/injection, schedule: Q01DX009 (ip), vehicle: saline with Tween-80) 106 % of control; (dose: 2.5 mg/kg/injection, schedule: Q01DX009 (ip), vehicle: saline with Tween-80) 97 % of control; (dose: 5.0 mg/kg/injection, schedule: Q01DX009 (ip), vehicle: saline with Tween-80) 109 % of control; (dose: 10.0 mg/kg/injection, schedule: Q01DX009 (ip), vehicle: saline with Tween-80) 86 % of control; (dose: 20.0 mg/kg/injection, schedule: Q01DX009 (ip), vehicle: saline with Tween-80) 103 % of control. The T/C is 101 % of control (dose: 40.0 mg/kg/injection, schedule: Q01DX009 (ip), vehicle: distilled water + Tween-80); 103 % of control (dose: 40.0 mg/kg/injection, schedule: Q01DX009 (ip), vehicle: saline with Tween-80); 123 % of control (dose: 80.0 mg/kg/injection, schedule: Q01DX009 (ip), vehicle: distilled water + Tween-80); 106 % of control (dose: 80.0 mg/kg/injection, schedule: Q01DX009 (ip), vehicle: saline with Tween-80); 166 % of control (dose: 160.0 mg/kg/injection, schedule: Q01DX009 (ip), vehicle: distilled water + Tween-80); 163 % of control (dose: 160.0 mg/kg/injection, schedule: Q01DX009 (ip), vehicle: saline with Tween-80). Where the note is “dose: 320.0 mg/kg/injection, schedule: Q01DX009 (ip), vehicle: distilled water + Tween-80”, the T/C was 194 % of control.

Turning to `CCCCOC(=O)C(c1ccccc1)C1(C)Sc2ccccc2NC1=O` (configuration not stated), the T/C reads like this: (dose: 12.5 mg/kg/injection, schedule: Q01DX001 (ip), vehicle: saline with Tween-80) 95 % of control; under setting [1], 96 % of control; under setting [2], 98 % of control.

As for `COc1ccc(/C=N/Nc2nnc3c4ccccc4c4ccccc4c3n2)cc1OC`, the T/C is, setting by setting: (dose: 50.0 mg/kg/injection, schedule: Q04DX002 (ip), vehicle: suspension in saline) 86 % of control; (dose: 100.0 mg/kg/injection, schedule: Q04DX002 (ip), vehicle: suspension in saline) 89 % of control; (dose: 200.0 mg/kg/injection, schedule: Q04DX002 (ip), vehicle: suspension in saline) 90 % of control.

Turning to `CN(C)C1c2cc(Cl)ccc2-c2c(N)cc(Cl)cc21` (configuration not stated), the T/C was 103 % of control under setting [3], 99 % of control under setting [4] and 91 % of control under setting [5].

For `CSc1nc2c(Br)cnn2c(=O)[nH]1`, the T/C is 94 % of control under setting [6]; 101 % of control (dose: 200.0 mg/kg/injection, schedule: Q01DX001 (ip), vehicle: saline with Tween-80); 100 % of control (dose: 400.0 mg/kg/injection, schedule: Q01DX001 (ip), vehicle: saline with Tween-80).

Take `CCOCCOCCOc1cccc2cccnc12`: the T/C was 103 % of control under setting [3], 107 % of control under setting [4] and 107 % of control under setting [5].

Consider `C#CCN(C)CCO`, for which the T/C by setting is: under setting [7], 111 % of control; under setting [8], 111 % of control; (dose: 400.0 mg/kg/injection, schedule: Q01DX009 (ip), vehicle: saline) 116 % of control.

Turning to `O=S1(=O)N=C(N2CCCCC2)c2ccccc21`, the T/C was 99 % of control (dose: 50.0 mg/kg/injection, schedule: Q01DX005 (ip), vehicle: saline with Tween-80); 96 % of control (dose: 100.0 mg/kg/injection, schedule: Q01DX005 (ip), vehicle: saline with Tween-80); 97 % of control under setting [9].

With `COc1cccc2c1C(=O)c1c(O)c3c(c(O)c1C2=O)[C@@H](OC)[C@@](O)(C(=O)CO)C[C@@H]3OC1CC(N)C(O)C(C)O1` (some centres not stated), the T/C is 108 % of control and 123 % of control (dose: 3.13 mg/kg/injection, schedule: Q04DX003 (ip), vehicle: water); 115 % of control (dose: 12.5 mg/kg/injection, schedule: Q04DX003 (ip), vehicle: water); 106 % of control and 115 % of control (dose: 25.0 mg/kg/injection, schedule: Q04DX003 (ip), vehicle: water); 104 % of control (dose: 50.0 mg/kg/injection, schedule: Q04DX003 (ip), vehicle: water).

In the case of `O=C(NC1COB(c2cc(C(F)(F)F)cc(C(F)(F)F)c2)OC1c1ccc([N+](=O)[O-])cc1)C(Cl)Cl` (configuration not stated), the T/C reads like this: (dose: 60.0 mg/kg/injection, schedule: Q01DX005 (ip), vehicle: Klucel (hydroxypropylcellulose) (HPC)) 100 % of control; (dose: 120.0 mg/kg/injection, schedule: Q01DX005 (ip), vehicle: Klucel (hydroxypropylcellulose) (HPC)) 100 % of control; (dose: 240.0 mg/kg/injection, schedule: Q01DX005 (ip), vehicle: Klucel (hydroxypropylcellulose) (HPC)) 99 % of control.

In the case of `Cc1cc(C)nc(/N=C/c2ccccc2O)c1`, the T/C was 98 % of control (dose: 50.0 mg/kg/injection, schedule: Q01DX009 (ip), vehicle: saline); 88 % of control under setting [7]; 91 % of control under setting [8].

`CCOC(=CP(=O)(c1ccccc1)c1ccccc1)OCC`: the T/C is, setting by setting: (dose: 50.0 mg/kg/injection, schedule: Q01DX005 (ip), vehicle: distilled water + Tween-80 + alcohol) 106 % of control; (dose: 100.0 mg/kg/injection, schedule: Q01DX005 (ip), vehicle: distilled water + Tween-80 + alcohol) 105 % of control; (dose: 200.0 mg/kg/injection, schedule: Q01DX005 (ip), vehicle: distilled water + Tween-80 + alcohol) 100 % of control.

As for `COC(=O)c1cc2ccc1OCC#CC#CCOc1ccc(cc1C(=O)OC)OCC#CC#CCO2`, the T/C was 89 % of control (dose: 60.0 mg/kg/injection, schedule: Q01DX005 (ip), vehicle: saline with Tween-80); 88 % of control (dose: 120.0 mg/kg/injection, schedule: Q01DX005 (ip), vehicle: saline with Tween-80); 88 % of control (dose: 240.0 mg/kg/injection, schedule: Q01DX005 (ip), vehicle: saline with Tween-80).

Take `CC12CCCN1CC=C2CO` (configuration not stated): the T/C under setting [1] is 100 % of control, the T/C under setting [2] is 96 % of control and the T/C under setting [6] was 100 % of control.

As for `NC(=S)c1ncn(C2OC(COC=O)C(OC=O)C2OC=O)c1NC=O` (configuration not stated), the T/C by setting is: (dose: 25.0 mg/kg/injection, schedule: Q01DX005 (ip), vehicle: Klucel (hydroxypropylcellulose) (HPC)) 110 % of control; under setting [3], 108 % of control; under setting [4], 113 % of control; under setting [5], 120 % of control; under setting [9], 114 % of control; (dose: 400.0 mg/kg/injection, schedule: Q01DX005 (ip), vehicle: Klucel (hydroxypropylcellulose) (HPC)) 100 % of control. In addition, the T/C (dose: 400.0 mg/kg/injection, schedule: Q01DX005 (ip), vehicle: saline with Tween-80) was 97 % of control.
